Patent US11084807B2, “Piperazine derivatives, pharmaceutical compositions and methods of use thereof” (Vidac Pharma Ltd., priority 2016, dated 2021)
Read-outs that look alike come from different tables or passages of the source.

Experiments:
Type in all cases: cell-based
[1] = system: Panc-1 Human pancreatic carcinoma cell-line; assay: XTT cytotoxicity, Panc-1 pancreatic carcinoma cells; details: Panc-1, XTT, 72 hr
Method: The piperazine-derivatives were prepared as a stock of 50 mM in 100% DMSO (dimethyl sulfoxide). […] Each experimental point was performed in triplicates. Vehicle (DMSO)-treated cells were used as control. Dilutions were performed in culture medium and DMSO so that the final concentration of DMSO in each well was 0.5%.
(§1) Optical density representing viable cells was determined using the XTT Cell Proliferation Kit assay (sodium 2,3,-bis(2-methoxy-4-nitro-5-sulfophenyl)-5-[(phenylamino)-carbonyl]-2H-tetrazolium inner salt, Biological industries, Beit-Haemek, Israel).
(§2) Percentage of Optical density is directly proportional to the number of living cells in culture. Cytotoxicity (%) was calculated in the following way: [(OD of drug-treated cells-OD of background)/(OD of control cells-OD of background)]×100.
(§3) New piperazine derivatives were tested for cytotoxicity in 4 cancer cell lines:
D) Panc-1—Human pancreatic carcinoma cell-line

[2] = system: PC3 prostate cancer line; assay: Cytotoxicity, PC3 prostate cancer cells; details: 25 mM glucose, 1500 cell/well, 10% FCS, 72 hours, read-out: IC50 (μM), prostate cancer cell line (Table 4)
[3] = system: Hela Human cervix adenocarcinoma cell-line; assay: XTT cytotoxicity, Hela cervix adenocarcinoma cells; details: 72 hr
Method: (§4) The piperazine-derivatives were prepared as a stock of 50 mM in 100% DMSO (dimethyl sulfoxide). Piperazine-derivatives were added at concentration ranging from 0.03-10 uM for 72 hours. Each experimental point was performed in triplicates. Vehicle (DMSO)-treated cells were used as control. Dilutions were performed in culture medium and DMSO so that the final concentration of DMSO in each well was 0.5%.
as §1, §2, §3
B) Hela—Human cervix adenocarcinoma cell-line

[4] = system: H358 Human lung carcinoma cell-line; assay: XTT cytotoxicity, H358 lung carcinoma cells
Method: as §4, §1, §2, §3
C) H358—Human lung carcinoma cell-line
New piperazine derivatives (compounds of Formula (IV)) were tested for cytotoxicity in the H358 human lung carcinoma cell line. Table 2 below provides IC50 values for the tested compounds.
New piperazine derivatives (compounds of Formula (V)) were tested for cytotoxicity in the H358 human lung carcinoma cell line. Table 3 below provide IC50 values for the tested compounds.

[5] = system: HCT116 Human colon carcinoma cell-line; assay: XTT cytotoxicity, HCT116 colon carcinoma cells; details: HCT-116, 72 hr
Method: as §4, §1, §2, §3
A) HCT116—Human colon carcinoma cell-line

[6] = NCI-H358, H358, XTT, 72 hr (Table 1), read-out: IC50 (XTT, 72 hr) Lung H358
[7] = NCI-H358, H358 lung cancer line, 11.5 mM glucose, 5000 cell/well, 0.5% FCS, 72 hours, read-out: IC50 (μM), lung cancer cell line (Table 2)
[8] = NCI-H358, H358 lung cancer line, 11.5 mM glucose, 5000 cell/well, 0.5% FCS, 72 hours, read-out: IC50 (μM), lung cancer cell line (Table 3)

Row | SMILES | IC50 [1] | IC50 [3] | IC50 [4, 7] | other results
1 | O=C(N1CCN(c2ccccc2)CC1)N1c2ccccc2Oc2ccccc21 [Compound 1] | 10 nM | 15 nM | 0.025 µM | IC50 [2]: 0.026 µM; IC50 [4, 6]: 0.05 µM; IC50 [5]: 10 nM
2 | O=C(N1CCN(c2c(F)c(F)c(F)c(F)c2F)CC1)N1c2ccccc2Oc2ccccc21 [Compound 2] | > 30000 nM | 1900 nM | > 10 µM | –
3 | O=C(C1c2ccccc2Sc2ccccc21)N1CCN(c2ccccc2)CC1 [Compound 3] | 310 nM | 500 nM | 0.43 µM | IC50 [4, 6]: 1.35 µM; IC50 [5]: 640 nM
4 | O=C(N1CCN(c2c(F)cccc2F)CC1)N1c2ccccc2Oc2ccccc21 [Compound 5] | 900 nM | 400 nM | 0.265 µM | IC50 [4, 6]: 0.84 µM; IC50 [5]: 1080 nM
5 | COc1cccc(N2CCN(C(=O)N3c4ccccc4Oc4ccccc43)CC2)c1 [Compound 11] | – | – | 0.0047 µM | –
6 | COc1ccccc1N1CCN(C(=O)N2c3ccccc3Oc3ccccc32)CC1 [Compound 12] | – | – | 0.0066 µM | –
7 | O=C(N1CCN(c2cc(F)cc(F)c2)CC1)N1c2ccccc2Oc2ccccc21 [Compound 13] | – | – | 0.0067 µM | –
8 | O=C(N1CCN(c2ccc(O)cc2)CC1)N1c2ccccc2Oc2ccccc21 [Compound 14] | – | – | 0.051 µM | –
9 | O=C(N1CCN(c2ccc(F)cc2)CC1)N1c2ccccc2Oc2ccccc21 [Compound 15] | – | – | 0.24 µM | –
10 | O=C(N1CCC(c2ccccc2)CC1)N1c2ccccc2Oc2ccccc21 [Compound 16] | – | – | 1.37 µM | –
11 | O=C(N1CCN(c2ccccc2)CC1)n1c2ccccc2c2ccccc21 [Compound 20] | – | – | – | IC50 [4, 8]: 0.027 µM
12 | O=C(N1CCN(c2cc(F)cc(F)c2)CC1)n1c2ccccc2c2ccccc21 [Compound 23] | – | – | – | IC50 [2]: 0.08 µM; IC50 [4, 8]: 0.009 µM
